Where a name gives a salt, the structure may show the parent alone.

In the case of `CC1(C)CC(Nc2nc(C(F)(F)F)ccc2-c2cc(Oc3cccc4sc(N)nc34)ncn2)CC(C)(C)N1` (as salt: trifluoroacetic acid salt) [Example 35, 4-(6-(2-(2,2,6,6-Tetramethylpiperidin-4-ylamino)-6-(trifluoromethyl)pyridin-3-yl)pyrimidin-4-yloxy)benzo[d]thiazol-2-amine trifluoroacetic acid salt], the melting point lay in the range of 264 to 265.1 °C. As for `CC(=O)Nc1nc2c(Oc3cc(-c4ccc(C(F)(F)F)cc4NCc4cncn4C)ncn3)cccc2s1` [Example 55, N-(4-(6-(2-((1-Methyl-1H-imidazol-5-yl)methylamino)-4-(trifluoromethyl)-phenyl)pyrimidin-4-yloxy)benzo[d]thiazol-2-yl)acetamide], the figure is 263 to 265.2 °C. As for `CC(=O)Nc1nc2c(Oc3cc(-c4ccc(C(F)(F)F)cc4NC(=O)[C@@H]4CCN4CC(C)C)ncn3)cccc2s1` [Example 38, (2S)-N-(2-(6-(2-Acetamidobenzo[d]thiazol-4-yloxy)pyrimidin-4-yl)-5-(trifluoromethyl)phenyl)-1-isobutylazetidine-2-carboxamide], the figure is 174.4 to 174.9 °C; as for `CC(=O)Nc1nc2c(Oc3cc(-c4ccc(C(F)(F)F)cc4NC(=O)C4CCCCN4C(C)C)ncn3)cccc2s1` (stereo not drawn) [Example 50, N-(2-(6-(2-Acetamidobenzo[d]thiazol-4-yloxy)pyrimidin-4-yl)-5-(trifluoromethyl)phenyl)-1-isopropylpiperidine-2-carboxamide], 260 °C (dec.). In turn, `CC(=O)Nc1nc2c(Oc3cc(-c4ccc(C(F)(F)F)nc4NC4CCN(CC(C)C)C4)ncn3)cccc2s1` (stereo not drawn) [Example 3, N-(4-(6-(2-(1-Isobutylpyrrolidin-3-ylamino)-6-(trifluoromethyl)pyridin-3-yl)pyrimidin-4-yloxy)benzo[d]thiazol-2-yl)acetamide] registered a melting point of 138 to 139 °C.

Consider `CC(C)CN1CCC[C@H]1CN(C)c1nc(C(F)(F)F)ccc1-c1cc(Oc2cccc3sc(N)nc23)ncn1` [Example 28], for which the melting point was 93.2 to 96.8 °C. In the case of `CC(C)CN1CCCCC1C(=O)Nc1cc(C(F)(F)F)ccc1-c1cc(Oc2cccc3ccc(N)nc23)ncn1` (stereo not drawn), the melting point lay in the range of 111.1 to 113.9 °C. As for `CC(=O)Nc1nc2c(Oc3cc(-c4ccc(C(F)(F)F)nc4NCC4CCCCN4CC(C)C)ncn3)cccc2s1` (racemic) [Example 31, N-(4-(6-(2-(((R,S)-1-isobutylpiperidin-2-yl)methylamino)-6-(trifluoromethyl)pyridin-3-yl)pyrimidin-4-yloxy)benzo[d]thiazol-2-yl)acetamide], the figure is 121.7 to 121.9 °C. As for `CC(=O)Nc1nc2c(Oc3cc(-c4ccc(C(F)(F)F)nc4NC4CCN(C(C)C)C4)ncn3)cccc2s1` (stereo not drawn) [Example 4, N-(4-(6-(2-(1-Isopropylpyrrolidin-3-ylamino)-6-(trifluoromethyl)pyridin-3-yl)pyrimidin-4-yloxy)benzo[d]thiazol-2-yl)acetamide], the figure is 140 to 141 °C; as for `CC1CC[C@@H](C(=O)Nc2cc(C(F)(F)F)ccc2-c2cc(Oc3cccc4ccc(N)nc34)ncn2)N1` (mixture of isomers) [Example 48, (2S,5R,S)-N-(2-(6-(2-Aminoquinolin-8-yloxy)pyrimidin-4-yl)-5-(trifluoromethyl)phenyl)-5-methylpyrrolidine-2-carboxamide], 162.9 to 164 °C. `CC(=O)Nc1nc2c(Oc3cc(-c4ccc(C(F)(F)F)nc4N(C)CC4CCCCN4CC(C)C)ncn3)cccc2s1` (stereo not drawn) [Example 29, N-(4-(6-(2-(((1-isobutylpiperidin-2-yl)methyl)(methyl)amino)-6-(trifluoromethyl)pyridin-3-yl)pyrimidin-4-yloxy)benzo[d]thiazol-2-yl)acetamide] showed a melting point of 123.2 to 125.4 °C. The molecule `CC(C)CN1CCCCC1C(=O)Nc1cc(C(F)(F)F)ccc1-c1cc(Oc2cccc3[nH]c(=O)c(N)nc23)ncn1` (stereo not drawn) [Example 42, N-(2-(6-(3-Amino-2-oxo-1,2-dihydroquinoxalin-5-yloxy)pyrimidin-4-yl)-5-(trifluoromethyl)phenyl)-1-isobutylpiperidine-2-carboxamide] had a melting point above 250 °C. `CC(=O)Nc1nc2c(Oc3cc(-c4ccc(C(F)(F)F)cc4NCc4cncn4Cc4ccccc4)ncn3)cccc2s1` [Example 54, N-(4-(6-(2-((1-Benzyl-1H-imidazol-5-yl)methylamino)-4-(trifluoromethyl)-phenyl)pyrimidin-4-yloxy)benzo[d]thiazol-2-yl)acetamide] returned a melting point of 264 to 264.1 °C. As for `CC(=O)Nc1nc2c(Oc3cc(-c4ccc(C(F)(F)F)cc4NC(=O)C4CCCCN4CC4CC4)ncn3)cccc2s1` (stereo not drawn) [Example 49, N-(2-(6-(2-Acetamidobenzo[d]thiazol-4-yloxy)pyrimidin-4-yl)-5-(trifluoromethyl)phenyl)-1-(cyclopropylmethyl)piperidine-2-carboxamide], the figure is 212.3 to 213.5 °C; as for `CC(C)CN1CCCCC1CN(C)c1nc(C(F)(F)F)ccc1-c1cc(Oc2cccc3sc(N)nc23)ncn1` (stereo not drawn) [Example 24, 4-(6-(2-(((1-Isobutylpiperidin-2-yl)methyl)(methyl)amino)-6-(trifluoromethyl)pyridin-3-yl)pyrimidin-4-yloxy)benzo[d]thiazol-2-amine], 98.9 to 101.9 °C. As for `CC(C)N1CCCCC1CNc1nc(C(F)(F)F)ccc1-c1cc(Oc2cccc3sc(N)nc23)ncn1` (stereo not drawn) [Example 27], the figure is 211.3 to 213 °C. In turn, `CC(C)CN1CCCCC1CNc1nc(C(F)(F)F)ccc1-c1cc(Oc2cccc3sc(N)nc23)ncn1` (stereo not drawn) [Example 26] gave a melting point of 118 to 118.2 °C.

Take `CC(=O)Nc1nc2c(Oc3cc(-c4ccc(C(F)(F)F)nc4NC4CC(C)(C)NC(C)(C)C4)ncn3)cccc2s1` (as salt: trifluoroacetic acid salt) [Example 36, N-(4-(6-(2-(2,2,6,6-Tetramethylpiperidin-4-ylamino)-6-(trifluoromethyl)-pyridin-3-yl)pyrimidin-4-yloxy)benzo[d]thiazol-2-yl)acetamide trifluoroacetic acid salt]: the melting point was 253.4 to 254.1 °C.

With `CC(C)CN1CCCCC1CNc1nc(C(F)(F)F)ccc1-c1cc(Oc2cccc3[nH]c(=O)c(N)nc23)ncn1` (stereo not drawn) [Example 6], the melting point is 228 to 229 °C. In the case of `CC(C)CN1CCCCC1C(C)(C)Nc1nc(C(F)(F)F)ccc1-c1cc(Oc2cccc3sc(N)nc23)ncn1` (stereo not drawn) [Example 5, 4-(6-(2-(2-(1-Isobutylpiperidin-2-yl)propan-2-ylamino)-6-(trifluoromethyl)pyridin-3-yl)pyrimidin-4-yloxy)benzo[d]thiazol-2-amine], the melting point lay in the range of 166 to 170 °C.

In turn, `CC(=O)Nc1nc2c(Oc3cc(-c4ccc(C(F)(F)F)nc4NCC4CCCCN4C(C)C)ncn3)cccc2s1` (stereo not drawn) [Example 32] returned a melting point of 159.3 to 162 °C. As for `CC(C)CN1CCC[C@H]1CNc1nc(C(F)(F)F)ccc1-c1cc(Oc2cccc3sc(N)nc23)ncn1` [Example 25], the figure is 198 °C (dec.); as for `CC(=O)Nc1nc2c(Oc3cc(-c4ccc(C(F)(F)F)cc4NC(=O)C4(C)CCCCN4)ncn3)cccc2s1` (stereo not drawn) [Example 43, N-(2-(6-(2-Acetamidobenzo[d]thiazol-4-yloxy)pyrimidin-4-yl)-5-(trifluoromethyl)phenyl)-2-methylpiperidine-2-carboxamide], 146.4 to 148.8 °C; as for `CC(=O)Nc1nc2c(Oc3cc(-c4ccc(C(F)(F)F)cc4NC(=O)[C@@H]4CCN4C(C)C)ncn3)cccc2s1` [Example 37, (2S)-N-(2-(6-(2-Acetamidobenzo[d]thiazol-4-yloxy)pyrimidin-4-yl)-5-(trifluoromethyl)phenyl)-1-isopropylazetidine-2-carboxamide], 198.8 to 199.4 °C. As for `CC(=O)Nc1nc2c(Oc3cc(-c4ccc(C(F)(F)F)nc4NC[C@@H]4CCCN4CC(C)C)ncn3)cccc2s1` [Example 30], the figure is 105.8 to 107.3 °C; as for `CC(=O)Nc1nc2c(Oc3cc(-c4ccc(C(F)(F)F)cc4NC(=O)C4CCCCN4CC(C)C)ncn3)cccc2s1` (stereo not drawn) [Example 51, N-(2-(6-(2-Acetamidobenzo[d]thiazol-4-yloxy)pyrimidin-4-yl)-5-(trifluoromethyl)phenyl)-1-isobutylpiperidine-2-carboxamide], 153.4 to 154.9 °C; as for `CC(=O)Nc1nc2c(Oc3cc(-c4ccc(C(F)(F)F)cc4NC(=O)C4(C)CCCCN4CC(C)C)ncn3)cccc2s1` (stereo not drawn) (as salt: trifluoroacetic acid salt) [Example 44, N-(2-(6-(2-Acetamidobenzo[d]thiazol-4-yloxy)pyrimidin-4-yl)-5-(trifluoromethyl)phenyl)-1-isobutyl-2-methylpiperidine-2-carboxamide trifluoroacetic acid salt], below 80 °C.

The term melting point denotes the temperature of the solid-liquid transition.

The values are drawn from US7301022B2, “Vanilloid receptor ligands and their use in treatments” (Amgen Inc., priority 2005, dated 2007).
